Measured values reported in article PMC9413568, “Application of COSMO-RS-DARE as a Tool for Testing Consistency of Solubility Data: Case of Coumarin in Neat Alcohols” (Molecules, 2022).

Legend:
[1] = parameters: method as in PMID 18583357; details: dependence on pH; cited from earlier work
[2] = shake-flask solubility of coumarin in neat alcohols, spectrophotometric determination; type: physicochemical; details: mean ± SD, n = 3
Experimental: This solution was then successfully diluted by transferring its fixed amounts to 10 mL volumetric flasks and adding methanol. The obtained series of solutions with decreasing coumarin concentrations was measured spectrophotometrically, and the absorbance values found at 310 nm wavelength were plotted against the corresponding concentration values. Three separate curves were prepared and then averaged, with the resulting linear equation being y = 42.346x + 0.0085. The curve can be characterized by high linearity, with the determination coefficient of R^2 = 0.9997. […] In this study, the shake-flask-type method of solubility determination was used. […] The prepared samples were incubated for 24 h at four different temperatures (25-40 °C with 5 °C intervals) using an ES-20/60 Orbital Shaker Incubator supplied by Biosan (Riga, Latvia). The temperature adjustment accuracy was 0.1 °C, and its variance during the daily cycle was ±0.5 °C. Moreover, the mixing of the samples at 60 rev/min was provided by the incubator. In the next step, the samples were filtered using a syringe with a PTFE filter with a […] pore size. All of the test tubes, syringes, and filters were preheated to the appropriate temperature to avoid the precipitation of dissolved coumarin. Finally, fixed amounts of the filtrate were transferred to test tubes, which were prefilled with a set amount of methanol, and samples prepared in this way were measured spectrophotometrically. The concentration of coumarin in the samples was determined through spectrophotometric measurements using an […] spectrophotometer from AOE Instruments (Shanghai, China). Spectra in the 190-700 nm wavelength range were recorded with a 1 nm resolution, and samples were diluted with methanol, which was also used as a reference. The absorbance values at 310 nm were used in conjunction with the calibration curve prepared earlier. Three samples were measured for each data point, and their concentrations were averaged and expressed as mole fractions.

Structure (SMILES): O=c1ccc2ccccc2o1 [coumarin, 2H-1-benzopyran-2-one]
- aqueous solubility [1]: decreases with the increase of pH
- solubility expressed as molar fraction ([2]; 1-butanol, 25 °C): 16.95 ± 1.09 molar fraction ×10^3
- solubility expressed as molar fraction ([2]; 1-butanol, 30 °C): 34.87 ± 1.34 molar fraction ×10^3
- solubility expressed as molar fraction ([2]; 1-butanol, 35 °C): 60.64 ± 0.77 molar fraction ×10^3
- solubility expressed as molar fraction ([2]; 1-butanol, 40 °C): 94.59 ± 2.12 molar fraction ×10^3
- solubility expressed as molar fraction ([2]; 1-octanol, 25 °C): 19.18 ± 0.67 molar fraction ×10^3
- solubility expressed as molar fraction ([2]; 1-octanol, 30 °C): 37.37 ± 1.24 molar fraction ×10^3
- solubility expressed as molar fraction ([2]; 1-octanol, 35 °C): 67.23 ± 2.91 molar fraction ×10^3
- solubility expressed as molar fraction ([2]; 1-octanol, 40 °C): 104.05 ± 0.71 molar fraction ×10^3
- solubility expressed as molar fraction ([2]; 1-pentanol, 25 °C): 19.66 ± 0.28 molar fraction ×10^3
- solubility expressed as molar fraction ([2]; 1-pentanol, 30 °C): 42.95 ± 1.59 molar fraction ×10^3
- solubility expressed as molar fraction ([2]; 1-pentanol, 35 °C): 77.44 ± 0.55 molar fraction ×10^3
- solubility expressed as molar fraction ([2]; 1-pentanol, 40 °C): 126.01 ± 7.64 molar fraction ×10^3
- solubility expressed as molar fraction ([2]; 1-propanol, 25 °C): 41.02 ± 0.72 molar fraction ×10^3
- solubility expressed as molar fraction ([2]; 1-propanol, 30 °C): 74.27 ± 2.42 molar fraction ×10^3
- solubility expressed as molar fraction ([2]; 1-propanol, 35 °C): 121.65 ± 5.97 molar fraction ×10^3
- solubility expressed as molar fraction ([2]; 1-propanol, 40 °C): 181.10 ± 4.99 molar fraction ×10^3
- solubility expressed as molar fraction ([2]; 2-propanol, 25 °C): 30.17 ± 0.60 molar fraction ×10^3
- solubility expressed as molar fraction ([2]; 2-propanol, 30 °C): 60.35 ± 1.81 molar fraction ×10^3
- solubility expressed as molar fraction ([2]; 2-propanol, 35 °C): 101.22 ± 4.59 molar fraction ×10^3
- solubility expressed as molar fraction ([2]; 2-propanol, 40 °C): 154.88 ± 5.76 molar fraction ×10^3
- solubility expressed as molar fraction ([2]; ethanol, 25 °C): 49.43 ± 2.59 molar fraction ×10^3
- solubility expressed as molar fraction ([2]; ethanol, 30 °C): 90.16 ± 5.57 molar fraction ×10^3
- solubility expressed as molar fraction ([2]; ethanol, 35 °C): 142.45 ± 5.12 molar fraction ×10^3
- solubility expressed as molar fraction ([2]; ethanol, 40 °C): 210.96 ± 6.24 molar fraction ×10^3
- solubility expressed as molar fraction ([2]; methanol, 25 °C): 77.01 ± 4.68 molar fraction ×10^3
- solubility expressed as molar fraction ([2]; methanol, 30 °C): 127.52 ± 5.07 molar fraction ×10^3
- solubility expressed as molar fraction ([2]; methanol, 35 °C): 196.63 ± 7.30 molar fraction ×10^3
- solubility expressed as molar fraction ([2]; methanol, 40 °C): 286.50 ± 6.20 molar fraction ×10^3
